Target: Nitric oxide synthase, brain (Sus scrofa)
Test: Inhibitory activity against Nitric oxide synthase (derived from porcine brain cerebellum)

In the case of `Nc1nc(N)c2nc(COc3ccccc3)cnc2n1` [6-Phenoxymethyl-pteridine-2,4-diamine], the IC50 is reported as 180 µM.

Source: BindingDB's records for doi:10.1021/jm981129a (Julius-Maximilians University Würzburg, 1999)
